From patent US12492173B2, “Herbicidal substituted N-tetrazolyl aryl carboxamides” (Bayer Aktiengesellschaft, priority 2019, dated 2025)

What was measured:
Assay type in all cases: in vivo
Abutilon theophrasti [1] = test: Post-emergence herbicidal action, ABUTH; design: key: % herbicidal action vs untreated; 100 = plants died, 0 = like control; conditions: for Herbicidal action against ABUTH: comparative experiment, 20 g of a.i./ha
Summary of the method: (§1)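 Values are visual estimates of herbicidal action, from 0% (as untreated) to 100% (dead), made about 3 weeks after plants at one-leaf stage in sandy loam were sprayed with the formulated compound.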

Alopecurus myosuroides = test: Post-emergence herbicidal action, ALOMY; design: key: % herbicidal action vs untreated; 100 = plants died, 0 = like control; conditions: for Herbicidal action against ALOMY: comparative experiment
Summary of the method: as §1

Viola tricolor = test: Post-emergence herbicidal action, VIOTR; design: key: % herbicidal action vs untreated; 100 = plants died, 0 = like control; conditions: for Herbicidal action against VIOTR: comparative experiment, 20 g of a.i./ha
Summary of the method: as §1

Veronica persica = test: Post-emergence herbicidal action, VERPE; design: key: % herbicidal action vs untreated; 100 = plants died, 0 = like control; conditions: for Herbicidal action against VERPE: comparative experiment
Summary of the method: as §1

Abutilon theophrasti [2] = test: Pre-emergence herbicidal action, ABUTH; design: key to Herbicidal action against ABUTH: % activity: 100 = plants have died, 0 = like control plants; conditions: for herbicidal activity ABUTH: dosage 320 g/ha, scored visually after 3 weeks vs untreated controls (100% = plants have died); for Herbicidal action against ABUTH: comparative experiment
Summary of the method: (§2)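 Seeds were covered with sandy loam soil, then received a pre-emergence surface spray of the WP- or EC-formulated compound. After 3 weeks under good greenhouse growth conditions, damage was scored visually in percent.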

Pharbitis purpurea = test: Pre-emergence herbicidal action, PHBPU; conditions: for herbicidal activity PHBPU: dosage 320 g/ha, scored visually after 3 weeks vs untreated controls (100% = plants have died)
Summary of the method: as §2

Echinochloa crus-galli = test: Post-emergence herbicidal action, ECHCG; design: key: % herbicidal action vs untreated; 100 = plants died, 0 = like control
Summary of the method: as §1

[3] = post-emergence, 20 g of a.i./ha

SMILES	herbicidal action ABUTH (Abutilon theophrasti [1]; Dosage 80 g/ha)	herbicidal action ALOMY (Alopecurus myosuroides; Dosage 80 g/ha)	herbicidal action VIOTR (Viola tricolor; Dosage 80 g/ha)	herbicidal action VERPE (Veronica persica; Dosage 80 g/ha)	herbicidal activity ABUTH (Abutilon theophrasti [2]) [%]	herbicidal activity PHBPU (Pharbitis purpurea) [%]	herbicidal action ECHCG (Echinochloa crus-galli; Dosage 80 g/ha)	herbicidal action ABUTH (Abutilon theophrasti [1]; post-emergence, dosage 80 g/ha) [%]	herbicidal action ALOMY (Alopecurus myosuroides; post-emergence, dosage 80 g/ha) [%]	herbicidal action VIOTR (Viola tricolor; post-emergence, dosage 80 g/ha) [%]	herbicidal action VERPE (Veronica persica; post-emergence, dosage 80 g/ha) [%]	herbicidal action ECHCG (Echinochloa crus-galli; post-emergence, dosage 80 g/ha) [%]	also measured
CCCn1nnnc1NC(=O)c1ccc(C(F)F)c(CSCC)c1Cl [Example 3-323]	100	80	90	90	100	100	100						
CC[S+]([O-])Cc1c(C(F)(F)F)ccc(C(=O)Nc2nnnn2C)c1Br (racemic) [Example 1-384]					100	90		100	90	100	100	100	Herbicidal action against ABUTH (Abutilon theophrasti [1]; post-emergence): 90; Herbicidal action against VIOTR (Viola tricolor; post-emergence): 100; Herbicidal action against VERPE (Veronica persica; [3]): 100; Herbicidal action against ABUTH (Abutilon theophrasti [2]; 80 g of a.i./ha): 100; Herbicidal action against ECHCG (Echinochloa crus-galli; comparative experiment, post-emergence, 20 g of a.i./ha): 90
CCS(=O)(=O)Cc1c(C(F)F)ccc(C(=O)Nc2nnnn2C)c1Cl [Example 1-325]	100	90	100	100	100	100	100						
CCn1nnnc1NC(=O)c1ccc(C(F)(F)F)c(CSC)c1Cl [Example 2-296]					100	90		100	100	100	100	90	
CSCc1c(I)ccc(C(=O)Nc2nnnn2C)c1Cl [Example 1-362]					100	80		100	90	100	100	100	Herbicidal action against ALOMY (Alopecurus myosuroides; post-emergence, 5 g of a.i./ha): 70
CCn1nnnc1NC(=O)c1ccc(C(F)(F)F)c(CS(=O)(=O)CC)c1Br [Example 2-385]					100	80		100	80	100	100	90	
CCSCc1c(C(F)F)ccc(C(=O)Nc2nnnn2CC)c1Cl [Example 2-323]					100	90		100	80	100	100	100	
CCn1nnnc1NC(=O)c1ccc(C(F)(F)F)c(C[S+](C)[O-])c1Cl (stereo not drawn) [Example 2-297]					100	90		80	100	100	100	100	
Cn1nnnc1NC(=O)c1ccc(C(F)(F)F)c(C[S+]([O-])CC(F)(F)F)c1Cl (racemic) [Example 1-312]					100	90		100	90	100	90	100	
CCCn1nnnc1NC(=O)c1ccc(C(F)(F)F)c(C[S+]([O-])CC)c1Br (stereo not drawn) [Example 3-384]	100	80	100	100	100	90	90						
Cn1nnnc1NC(=O)c1ccc(C(F)(F)F)c(CS(=O)(=O)CC2CC2)c1Cl [Example 1-316]	100	90	100	100	100	90	100						
COCC[S+]([O-])Cc1c(C(F)(F)F)ccc(C(=O)Nc2nnnn2C)c1Cl (racemic) [Example 1-306]	90	90	100	90	100	90	90						
CSc1c(C(=O)Nc2nnnn2C)ccc(C(F)(F)F)c1C[S+](C)[O-] (stereo not drawn) [Example 1-162]					100	90		100	100	100	100	100	Herbicidal action against ABUTH (Abutilon theophrasti [2]; 20 g of a.i./ha): 100; Herbicidal action against PHBPU (Pharbitis purpurea; comparative experiment, 20 g of a.i./ha): 60
CCSCc1c(C(F)(F)F)ccc(C(=O)Nc2nnnn2C)c1Br [Example 1-383]					100	80		100	100	100	100	90	Herbicidal action against ABUTH (Abutilon theophrasti [1]; post-emergence): 90; Herbicidal action against ALOMY (Alopecurus myosuroides; [3]): 80; Herbicidal action against VIOTR (Viola tricolor; post-emergence): 100; Herbicidal action against VERPE (Veronica persica; [3]): 100; Herbicidal action against ABUTH (Abutilon theophrasti [2]; 80 g of a.i./ha): 100
Cn1nnnc1NC(=O)c1ccc(I)c(C[S+](C)[O-])c1Cl (racemic) [Example 1-363]					100	100		100	90	100	100	100	Herbicidal action against ABUTH (Abutilon theophrasti [2]; 20 g of a.i./ha): 100
CCn1nnnc1NC(=O)c1ccc(C(F)F)c(CS(=O)(=O)CC)c1Cl [Example 2-325]	100	80	100	90	100	100	100						
CCSCc1c(C(F)(F)F)ccc(C(=O)Nc2nnnn2C)c1Cl [Example 1-299]					100	90		100	90	100	100	90	Herbicidal action against ALOMY (Alopecurus myosuroides; post-emergence, 5 g of a.i./ha): 70; Herbicidal action against VERPE (Veronica persica; post-emergence, 5 g of a.i./ha): 100; Herbicidal action against ABUTH (Abutilon theophrasti [2]; 20 g of a.i./ha): 90
CCCn1nnnc1NC(=O)c1ccc(C(F)(F)F)c(C[S+](C)[O-])c1SC (stereo not drawn) [Example 3-162]					100	90		100	90	100	100	100	
Cn1nnnc1NC(=O)c1ccc(C(F)(F)F)c(C[S+]([O-])C2CC2)c1Cl (racemic) [Example 1-303]					100	100		100	100	100	100	100	
